# Test results reported in patent US20140045724A1, “FORMULATION SCREENING METHODS, APPARATUSES FOR PERFORMING SUCH METHODS AND FORMULATIONS FORMED BY SUCH METHODS” (priority 2012, published 2014).
# Assay: Kinetic gradient concentration study in water
# Type: physicochemical
# Conditions: CBZ gradient 0.01-0.64 w/v %
# Method: CBZ-Ethanol solution was dispensed into 10 columns of wells in a 96-well microplate as follows: row A (80 μL @ 1 mg/mL; 80 μg API); row B (100 μL @ 2 mg/mL; 200 μg); row C (100 μL @ 4 mg/mL; 400 μg); row D (100 μL @ 6 mg/mL; 600 μg); row E (100 μL @ 8 mg/mL; 800 μg); row F (100 μL @ 20 mg/mL; 2 mg); row G (2×100 μL @ 20 mg/mL; 4 mg); row H (4×100 μL @ 20 mg/mL; 8 mg). Thus, a first-pass filling of the wellplate was conducted. The wellplate was placed on a centrivap and the solvent stripped at ambient temperature for ˜4 hours. The wells in rows G and H were refilled with CBZ solution, and the solvent stripped at ambient temperature for ˜1 hour, resulting in a net CBZ charge to rows G and H of 4 mg per well. This procedure was repeated twice for row H, resulting in a net CBZ charge of 8 mg per well. […] To the wells in columns 1 through 10 were charged the appropriate excipient, surfactant, and HPBCD solutions (4 mg/mL; 25 or 80 μL 5% Ethanol solution) that were previously determined in Example 1. Additional 5% Ethanol solvent was added to the wells to give 200 μL total liquid. The solvent (200 μL) was also charged to wells in column 11 (API control) and 12 (solvent only). […]
# The microplate was inverted before scanning through the film on a UV-VIS microplate reader (600-900 nm, 2-nm step size; transmittance). […]
compound,measurement,setting,value
"NC(=O)N1c2ccccc2C=Cc2ccccc21 [control, carbamazepine]","kinetically stable API concentration, sonicated microplate",sonicated wellplate,0.02 w/v %
same,"kinetically stable API concentration, unsonicated microplate",unsonicated wellplate,0.02 w/v %
